Here are results for seven compounds from PubChem BioAssay (NCI).

Molecules are shown by their SMILES.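 Compound exposure: 48 hours, 5 concentrations, 96-well plates. GI50 marks 50% less growth. Definition used: TGI = concentration required for complete inhibition of growth.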

Some test systems named below: LOX IMVI melanoma; UO-31 renal; M14 melanoma; SR leukemia; 786-0 renal; SF-295 CNS; SNB-19 CNS; RXF 393 renal; PC-3 prostate; SF-268 CNS.
What all share (assay): inhibition of tumour cell growth, NCI panel, 48 h

Regarding `NS(=O)(=O)c1ccc(NC(=O)c2cccc(NC3=C(Cl)C(=O)N(Cc4ccccc4)C3=O)c2)cc1`, the GI50 in the test with LOX IMVI melanoma is 3.54 µM; in the test with UO-31 renal, 2.27 µM; with M14 melanoma, 15.8 µM; in the test with SR leukemia it was 0.323 µM; with 786-0 renal, 21.5 µM; in the test with SF-295 CNS it was 5.59 µM. For the same compound, the GI50 in the test with SNB-19 CNS is 27.1 µM; in the test with RXF 393 renal, 10.6 µM; with PC-3 prostate it was 6.57 µM; in the test on SF-268 CNS, 11.7 µM. Moreover, the TGI in the test on LOX IMVI melanoma was 16.1 µM; with UO-31 renal, 6.4 µM; with M14 melanoma, 38.7 µM; in the test with SR leukemia it was 1.73 µM; in the test on 786-0 renal, > 100 µM; with SF-295 CNS it was 22.5 µM. Also, the TGI in the test on SNB-19 CNS is > 100 µM; in the test on RXF 393 renal, 33.9 µM; with PC-3 prostate, 29 µM; in the test with SF-268 CNS, 32.4 µM.
With `CCCOC(=O)C1C2CCC(O2)C1C(=O)O` (centres undefined), the TGI in the test on LOX IMVI melanoma, in the test on UO-31 renal, with M14 melanoma, in the test with SR leukemia, in the test with 786-0 renal and in the test with SF-295 CNS was > 100 µM in each case. Besides, the TGI in the test with SNB-19 CNS, in the test on RXF 393 renal, in the test on PC-3 prostate and in the test with SF-268 CNS was > 100 µM throughout.
Turning to `COc1cccc(NC2=C(Cl)C(=O)N(Cc3ccc(Cl)cc3)C2=O)c1`, the GI50 in the test on LOX IMVI melanoma was 1.45 µM; with UO-31 renal, 7.88 µM; with M14 melanoma it was 1.66 µM; in the test with SR leukemia, 0.261 µM; in the test with 786-0 renal it was 1.54 µM; in the test with SF-295 CNS, 2.35 µM. The GI50 was 8.25 µM in the test on SNB-19 CNS, 0.788 µM with RXF 393 renal, 1.68 µM in the test on PC-3 prostate and 3.02 µM in the test with SF-268 CNS. Also, the TGI with LOX IMVI melanoma is > 35.3 µM; with UO-31 renal it was 31.7 µM; in the test on M14 melanoma, 7.71 µM; in the test on 786-0 renal, 8.39 µM; in the test on SF-295 CNS it was 12.8 µM; in the test on SNB-19 CNS, > 100 µM. In addition, the TGI is 6.26 µM in the test with RXF 393 renal, 10.4 µM in the test with PC-3 prostate and 13.9 µM with SF-268 CNS.
On to `Cn1cc(C2=C(c3cn(CCCCC(=N)N)c4ccccc34)C(=O)NC2=O)c2ccccc21`, for which the GI50 with LOX IMVI melanoma was > 25 µM; in the test on UO-31 renal it was > 25 µM; in the test on M14 melanoma, > 25 µM; with SR leukemia it was 11.1 µM; in the test with 786-0 renal, > 25 µM; in the test with SF-295 CNS it was > 13.7 µM. In addition, the GI50 is 21.8 µM in the test on SNB-19 CNS, > 25 µM in the test on RXF 393 renal, > 25 µM in the test with PC-3 prostate and > 25 µM with SF-268 CNS. Further, the TGI in the test with LOX IMVI melanoma, in the test with UO-31 renal, in the test with M14 melanoma, with SR leukemia, in the test on 786-0 renal and with SF-295 CNS was > 25 µM throughout. The TGI in the test on SNB-19 CNS, in the test with RXF 393 renal, in the test with PC-3 prostate and in the test on SF-268 CNS was > 25 µM throughout.
Take `CN(C(=O)CNC(=O)/C=C/c1cccc(Cl)c1)C1CCS(=O)(=O)CC1`: the GI50 in the test with LOX IMVI melanoma was 0.7 µM; in the test with UO-31 renal, 47 µM; in the test with M14 melanoma, 1.48 µM; in the test on SR leukemia, > 100 µM; in the test with 786-0 renal, 4.57 µM; with SF-295 CNS it was 5.03 µM. Besides, the GI50 with SNB-19 CNS was > 100 µM; in the test with RXF 393 renal, 6.47 µM; with PC-3 prostate it was > 100 µM; with SF-268 CNS it was 65.1 µM. Moreover, the TGI in the test with LOX IMVI melanoma, in the test with UO-31 renal, with M14 melanoma, in the test with SR leukemia, with 786-0 renal and with SF-295 CNS was > 100 µM each time. Further, the TGI in the test with SNB-19 CNS was > 100 µM; with RXF 393 renal it was 40.7 µM; in the test with PC-3 prostate it was > 100 µM; with SF-268 CNS it was > 100 µM.
In the case of `Cc1c(Cl)cccc1NC(=O)c1sc2nc3c(cc2c1N)CCCC3`, the GI50 in the test on LOX IMVI melanoma is 0.576 µM; in the test with UO-31 renal, 3.03 µM; in the test on M14 melanoma, 0.39 µM; in the test on SR leukemia it was 0.315 µM; in the test with 786-0 renal, 0.681 µM; in the test on SF-295 CNS, 0.346 µM. Also, the GI50 with SNB-19 CNS is 0.979 µM; in the test with RXF 393 renal, 0.514 µM; in the test on PC-3 prostate it was 1.11 µM; with SF-268 CNS it was 0.786 µM. The TGI with LOX IMVI melanoma, in the test with UO-31 renal, with M14 melanoma, in the test with SR leukemia, with 786-0 renal and in the test on SF-295 CNS was > 100 µM in each case. The TGI with SNB-19 CNS is > 100 µM; with RXF 393 renal, > 89.6 µM; in the test with PC-3 prostate, > 100 µM; in the test on SF-268 CNS it was > 100 µM.
Turning to `CCOC(=O)c1c(C)n(Cc2ccccc2)c2c1cc1oc(=O)c(=O)n3cnc2c13`, the GI50 in the test with LOX IMVI melanoma is 8.74 µM; with UO-31 renal it was 25.6 µM; with M14 melanoma, 18.3 µM; with SR leukemia, 7.99 µM; in the test on 786-0 renal it was 13.7 µM; with SF-295 CNS, 16.2 µM. For the same compound, the GI50 in the test with SNB-19 CNS was 42.4 µM; with RXF 393 renal, 16 µM; with PC-3 prostate it was 10.3 µM; in the test on SF-268 CNS it was 15.3 µM. The TGI in the test with LOX IMVI melanoma was 22.3 µM; in the test with UO-31 renal, > 50 µM; with M14 melanoma, > 50 µM; in the test with SR leukemia, > 50 µM; in the test with 786-0 renal, > 50 µM; in the test with SF-295 CNS, > 50 µM. Besides, the TGI with SNB-19 CNS, in the test on RXF 393 renal, in the test on PC-3 prostate and with SF-268 CNS was > 50 µM in each case.
